Measured values as given in patent US20030194749A1 (priority 2002, published 2003).
Where two headings read alike, the source gives them in different places.

Tests used:
[1] = molecular target: T1, ATM (Homo sapiens, UniProt Q13315); experiment: Streptavidin-sepharose pull-down from nuclear extract, ATM; format: binding; details: HeLa nuclear extract; 150 μM wortmannin or 1 mM ATP
T1 construct: we used nuclear extract for our pull-down experiments; endogenous in cells
Description: (§1) For the competition with ATP, ATP was directly added to a final concentration of 1 mM ATP.
(§2) To determine which PIK-related kinases could be pulled-down with BW, we performed several affinity precipitations after incubation with BW concentrations ranging from 0.5-50 μM. As controls, we used the […] compound (negative) and nuclear extracts (positive). We probed a Western blot for the precipitation of ATR, ATM and DNA-PKcs and received a pattern of different sensibility that is related to the IC50s observed in vitro. DNA-PKcs is the most sensitive member to precipitation with BW of the PIK-related kinases we tested and can be precipitated at concentrations as low as 0.5 μM. ATM also seems to be more sensitive to precipitation than ATR, and starts to give a signal at 2 μM. ATR is the least sensitive kinase to precipitation tested, and starts to pull-down at 10 μM.
(§3) Therefore, we performed pull-down reactions with 30 μM biotin-wortmannin using HeLa nuclear extract. […] The proteins that were pull-down were analyzed via Western blot detecting DNA-PKcs, ATM and biotin-wortmannin.

[2] = molecular target: T2, DNA-PKcs (Homo sapiens, UniProt P78527); experiment: Streptavidin-sepharose pull-down from nuclear extract, DNA-PKcs; format: binding; details: HeLa nuclear extract; 150 μM wortmannin or 1 mM ATP
T2 construct: we used nuclear extract for our pull-down experiments; endogenous in cells
Description: as §1, §2, §3

[3] = Stability in buffer systems by thin layer chromatography; format: physicochemical; details: most conditions tested (not 1 M Tris)
Description: For thin layer chromatography (TLC), Silica gel glass plates (0.25 mm) were used to separate different components in hexane:ethylacetate (1:2) as solvents. Components were visualized by illumination with long wave ultraviolet light and by dipping into an aqueous solution of ceric ammonium molybdate followed by heating.
Tris based (pH 7.5, 8)and Hepes (pH 7.5, 8) based buffer systems were tested for incubations for 30 min at 4° C. and 30° C.

[4] = molecular target: ATR (Homo sapiens, UniProt Q13535); details: Sarkaria et al., 1998; cited from earlier work
[5] = molecular target: T3, Flag-tagged ATR (Homo sapiens, UniProt Q13535); experiment: ATR kinase assay (GST-RAD17 substrate); format: biochemical; details: 3-4 experiments, read from a graph
T3 construct: expressed in transfected cells
Description: After the incubation, the beads were washed in 500 μl kinase buffer.
ATR kinase assay: ATR precipitates were incubated with 27.5 μl of kinase buffer+1 μl 32P γ-ATP (1 μCi)+1.5 μl GST-RAD17 substrate (1.5 μg) for exactly 15 min at 30° C. The reactions were stopped by adding 10 μl of 6×SDS sample buffer and boiling the sample for 8 min at 95° C.
The dried gel was either exposed overnight to Biomax film or in the phosphoimager cassette for several hours and quantified using the program Image Quant v1.2 from Molecular Dynamics, Sunnyvale, Calif. (USA). Curves were plotted in the program KaleidaGraph v3.5 (Synergy Software, Reading, Pa.) using the Hill equation. […]
After the kinase reactions were carried out, the samples were separated on a 5-12.5% gradient gel. […] Flag-ATR and labeling with biotin-wortmannin were detected by chemiluminescence using α-Flag M5 or streptavidin HRP antibody. The lower half of the gel was stained with coomassie, dried and analyzed by autoradiography.
Analysis of substrate phosphorylation by autoradiography allows evaluation of the kinase activity that remains after incubation with different amounts of biotin-wortmannin. […] In the lower lane, the amount of Flag-tagged ATR was determined by using a Flag specific antibody. This signal was used to normalize for equal loading to generate quantitative data. […]

[6] = tested on: HEK 293T cells; experiment: Capability to enter intact cells (protein labeling after cell incubation); format: cell-based, human; details: 50 μM, 45 min
Description: The media and the inhibitory compound were premixed to reduce toxicity and incubated on the cells for 45 min or 1 h.
After 45 min, the cells were harvested and then lysates were generated. 100 μg of protein was separated on a 5-12.5% gradient gel, transferred to PVDF membrane and either analyzed with α-wortmannin sera or with streptavidin HRP to detect biotin-wortmannin.

[7] = molecular target: PI 3-kinase; details: cited from earlier work; for fold less effective than wortmannin towards PI 3-kinase: relative to wortmannin
[8] = molecular target: mTOR (FRAP) (Homo sapiens, UniProt P42345); details: cited from earlier work

T1 sequence (Q13315 whole entry): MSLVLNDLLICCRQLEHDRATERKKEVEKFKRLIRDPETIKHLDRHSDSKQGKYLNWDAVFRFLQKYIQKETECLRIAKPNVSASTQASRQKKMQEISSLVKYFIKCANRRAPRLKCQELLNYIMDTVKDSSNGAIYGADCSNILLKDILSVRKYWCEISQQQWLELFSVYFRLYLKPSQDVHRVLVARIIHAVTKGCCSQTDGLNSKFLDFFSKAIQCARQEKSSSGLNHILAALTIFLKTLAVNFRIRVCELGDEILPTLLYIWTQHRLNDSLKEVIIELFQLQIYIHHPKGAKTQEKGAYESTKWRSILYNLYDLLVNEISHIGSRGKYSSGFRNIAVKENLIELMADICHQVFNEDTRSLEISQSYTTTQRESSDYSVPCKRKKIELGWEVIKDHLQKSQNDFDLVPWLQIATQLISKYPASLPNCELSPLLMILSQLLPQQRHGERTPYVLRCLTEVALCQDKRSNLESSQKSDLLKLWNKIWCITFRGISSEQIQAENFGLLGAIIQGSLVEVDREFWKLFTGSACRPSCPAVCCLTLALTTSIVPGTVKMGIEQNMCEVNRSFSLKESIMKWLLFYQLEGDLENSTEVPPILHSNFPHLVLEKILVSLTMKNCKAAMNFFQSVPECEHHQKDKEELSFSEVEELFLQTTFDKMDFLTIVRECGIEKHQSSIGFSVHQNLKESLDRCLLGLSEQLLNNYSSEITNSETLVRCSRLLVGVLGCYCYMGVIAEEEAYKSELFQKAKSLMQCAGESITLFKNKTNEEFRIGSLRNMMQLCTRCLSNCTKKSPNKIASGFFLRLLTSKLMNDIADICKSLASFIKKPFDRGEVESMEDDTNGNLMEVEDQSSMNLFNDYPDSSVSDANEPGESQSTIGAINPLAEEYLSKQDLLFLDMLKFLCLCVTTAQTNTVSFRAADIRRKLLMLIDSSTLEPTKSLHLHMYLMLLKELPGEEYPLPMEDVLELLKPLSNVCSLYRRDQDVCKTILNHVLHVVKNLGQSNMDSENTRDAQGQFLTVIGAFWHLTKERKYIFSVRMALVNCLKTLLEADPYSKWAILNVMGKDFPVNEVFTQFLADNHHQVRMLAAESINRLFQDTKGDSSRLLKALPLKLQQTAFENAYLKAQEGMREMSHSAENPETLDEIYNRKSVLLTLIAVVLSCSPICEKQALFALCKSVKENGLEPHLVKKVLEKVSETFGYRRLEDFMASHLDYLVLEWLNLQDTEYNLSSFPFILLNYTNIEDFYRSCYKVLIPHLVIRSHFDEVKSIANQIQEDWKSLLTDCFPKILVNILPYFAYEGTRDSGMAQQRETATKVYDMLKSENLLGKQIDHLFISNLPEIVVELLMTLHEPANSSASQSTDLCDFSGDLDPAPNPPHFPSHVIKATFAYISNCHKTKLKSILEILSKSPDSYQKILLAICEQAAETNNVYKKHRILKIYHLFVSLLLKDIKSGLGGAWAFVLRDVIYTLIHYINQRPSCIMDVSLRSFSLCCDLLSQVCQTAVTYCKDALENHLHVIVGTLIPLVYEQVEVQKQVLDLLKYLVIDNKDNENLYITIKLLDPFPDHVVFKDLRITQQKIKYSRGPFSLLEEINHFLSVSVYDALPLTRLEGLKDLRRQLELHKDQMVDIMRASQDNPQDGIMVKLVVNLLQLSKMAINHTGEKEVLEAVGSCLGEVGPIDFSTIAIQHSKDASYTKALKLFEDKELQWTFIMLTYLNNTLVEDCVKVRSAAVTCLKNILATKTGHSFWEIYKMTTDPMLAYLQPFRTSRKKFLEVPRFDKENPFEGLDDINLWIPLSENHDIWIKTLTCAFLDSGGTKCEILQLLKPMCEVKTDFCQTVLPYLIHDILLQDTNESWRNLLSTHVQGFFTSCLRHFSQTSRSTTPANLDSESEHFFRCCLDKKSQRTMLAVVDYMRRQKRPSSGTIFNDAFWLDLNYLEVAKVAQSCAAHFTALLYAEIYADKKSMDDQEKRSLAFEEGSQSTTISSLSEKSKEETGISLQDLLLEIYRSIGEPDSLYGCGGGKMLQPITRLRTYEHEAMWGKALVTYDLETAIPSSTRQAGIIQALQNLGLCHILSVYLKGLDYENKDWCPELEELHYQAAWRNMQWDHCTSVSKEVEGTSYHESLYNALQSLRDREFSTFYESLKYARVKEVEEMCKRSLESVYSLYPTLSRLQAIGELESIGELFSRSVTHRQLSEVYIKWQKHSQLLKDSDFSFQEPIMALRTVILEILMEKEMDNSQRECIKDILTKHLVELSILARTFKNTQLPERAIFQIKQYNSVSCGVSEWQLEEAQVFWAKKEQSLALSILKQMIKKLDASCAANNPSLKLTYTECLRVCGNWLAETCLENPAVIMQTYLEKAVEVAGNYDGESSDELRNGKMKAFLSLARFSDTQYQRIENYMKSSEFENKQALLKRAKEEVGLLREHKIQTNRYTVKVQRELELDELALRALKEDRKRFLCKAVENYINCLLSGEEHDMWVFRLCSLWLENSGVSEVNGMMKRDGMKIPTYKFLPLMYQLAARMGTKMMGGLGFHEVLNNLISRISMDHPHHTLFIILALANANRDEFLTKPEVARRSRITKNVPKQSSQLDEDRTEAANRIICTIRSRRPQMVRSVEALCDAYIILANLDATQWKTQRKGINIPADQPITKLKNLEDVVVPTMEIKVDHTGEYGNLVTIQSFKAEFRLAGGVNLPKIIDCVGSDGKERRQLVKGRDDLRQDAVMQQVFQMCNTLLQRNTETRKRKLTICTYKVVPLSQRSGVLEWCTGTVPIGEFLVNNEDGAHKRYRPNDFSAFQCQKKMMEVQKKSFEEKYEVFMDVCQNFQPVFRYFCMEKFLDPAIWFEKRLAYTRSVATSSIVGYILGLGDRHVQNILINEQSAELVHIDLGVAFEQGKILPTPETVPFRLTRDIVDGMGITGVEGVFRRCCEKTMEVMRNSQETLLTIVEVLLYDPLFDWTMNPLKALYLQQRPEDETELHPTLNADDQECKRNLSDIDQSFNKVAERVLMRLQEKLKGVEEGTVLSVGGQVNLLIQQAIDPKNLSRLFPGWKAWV

SMILES: Nc1ncnc2c1ncn2[C@@H]1O[C@H](COP(=O)(O)OP(=O)(O)OP(=O)(O)O)[C@@H](O)[C@H]1O [ATP]
- effect of pretreatment on pull-down of ATM with 30 μM biotin-wortmannin [1]: did not show an effect
- effect of pretreatment on pull-down of DNA-PKcs with 30 μM biotin-wortmannin [2]: did not show an effect

SMILES: COC[C@H]1OC(=O)c2coc3c2[C@@]1(C)C1=C(C3=O)[C@@H]2CCC(=O)[C@@]2(C)C[C@H]1OC(C)=O [wortmannin, Wortmannin]
- time in large part stable in buffer [3]: at least 30 min
- IC50 [4]: 1800 nM
- IC50 [5]: 1800 nM
- capability to enter into intact cells [6]: capable to enter into intact cells

SMILES: COCC1OC(=O)c2coc3c2C1(C)C1=C(C3=O)C2CCC(=O)C2(C)CC1O (stereo not shown) [11-O-desacetyl wortmannin]
- IC50 [7]: 16.7 nM
- fold less effective than wortmannin towards PI 3-kinase [7]: 4 fold
- fold less effective than wortmannin towards PI 3-kinase ([7]; listed as 0-11-desacetylwortmannin): about four

SMILES: O=c1cc(N2CCOCC2)oc2c(-c3ccccc3)cccc12 [LY294002, 2-(4-morpholinyl)-S-phenyl-4H-1-benzopyran-4-one]
- IC50 [8]: ~3 µM
